Read-outs that look alike come from different tables or passages of the source.
Legend:
5-HT2B receptor = target: T1, 5-HT2B receptor (Homo sapiens, UniProt P41595); experiment: cell-based
T1 construct: host or cells: CHO-K1

5-HT2A receptor = target: T2, 5-HT2A receptor (Homo sapiens, UniProt P28223); experiment: FLIPR Ca2+ flux functional assay, 5-HT2A; format: cell-based
T2 construct: host or cells: HEK293
Protocol: Activity at 5-HT2A, 5-HT2B and 5-HT2C receptors was determined using a FLIPR Ca^2+ flux assay at WuXi AppTec Co. Ltd. (Hong Kong) Discovery Biology Unit according to their standard protocols. Briefly, stably transfected cells expressing the receptor of interest (HEK293 for 5-HT2A and 5-HT2C; CHO-K1 for 5-HT2B) were grown and plated in a 384 well plate and incubated at 37° C. and 5% CO2 overnight. A 250 mM stock solution of probenecid in FLIPR calcium assay buffer (10 mL) was freshly prepared and combined with a fluorescent dye (Fluo-4 Direct) to give a final assay concentration of 2.5 mM. Reference compounds were 4-fold serially diluted and the screening compounds were 3-fold serially diluted in 100% DMSO for 10 points using Agilent Bravo, and 750 nL was added to a 384 well compound plate using Echo along with 30 μL assay buffer. The fluorescent dye was then added to the assay plate along with assay buffer to a final volume of […]. The cell plate was incubated for 50 min at 37° C. and 5% CO2 and placed into the FLIPR Tetra along with the compound plate. 10 μL of references and compounds were then transferred from the compound plate into the cell plate and the fluorescent signal was read.

5-HT2C receptor = target: T3, 5-HT2C receptor (Homo sapiens, UniProt P28335); experiment: cell-based
T3 construct: host or cells: HEK293
T3 sequence (P28335 33-458): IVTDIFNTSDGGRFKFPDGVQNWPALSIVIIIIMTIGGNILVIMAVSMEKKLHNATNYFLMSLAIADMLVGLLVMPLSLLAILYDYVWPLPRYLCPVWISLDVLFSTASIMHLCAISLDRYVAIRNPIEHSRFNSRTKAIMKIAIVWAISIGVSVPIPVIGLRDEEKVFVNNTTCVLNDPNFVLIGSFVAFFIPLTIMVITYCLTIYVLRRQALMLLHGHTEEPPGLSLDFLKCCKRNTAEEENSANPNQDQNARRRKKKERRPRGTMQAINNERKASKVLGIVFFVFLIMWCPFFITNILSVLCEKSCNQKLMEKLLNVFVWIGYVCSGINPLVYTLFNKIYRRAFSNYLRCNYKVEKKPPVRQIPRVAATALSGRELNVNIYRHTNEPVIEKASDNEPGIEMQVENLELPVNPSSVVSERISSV

[1] = agonist activity, Ca2+ flux, CHO-K1 cells
[2] = agonist activity, Ca2+ flux, CHO-K1 cells, read-out: 5-HT2B EC50
[3] = agonist activity, Ca2+ flux, HEK293 cells
[4] = agonist activity, Ca2+ flux, HEK293 cells, read-out: 5-HT2A EC50
[5] = agonist activity, Ca2+ flux, HEK293 cells, read-out: 5-HT2C EC50

T2 sequence (P28223 whole entry): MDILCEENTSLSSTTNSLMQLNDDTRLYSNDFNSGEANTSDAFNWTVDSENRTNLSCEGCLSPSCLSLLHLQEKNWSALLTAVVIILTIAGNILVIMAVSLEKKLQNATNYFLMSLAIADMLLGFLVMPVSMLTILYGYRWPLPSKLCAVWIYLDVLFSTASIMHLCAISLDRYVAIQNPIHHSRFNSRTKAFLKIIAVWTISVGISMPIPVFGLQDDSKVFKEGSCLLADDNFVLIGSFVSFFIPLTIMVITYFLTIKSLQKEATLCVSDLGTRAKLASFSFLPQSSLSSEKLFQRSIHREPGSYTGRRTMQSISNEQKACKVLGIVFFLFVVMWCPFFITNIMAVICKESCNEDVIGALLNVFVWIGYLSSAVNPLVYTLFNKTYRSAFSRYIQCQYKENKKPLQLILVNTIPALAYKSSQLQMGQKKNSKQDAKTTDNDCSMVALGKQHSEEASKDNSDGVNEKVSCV
T1 sequence (P41595 whole entry): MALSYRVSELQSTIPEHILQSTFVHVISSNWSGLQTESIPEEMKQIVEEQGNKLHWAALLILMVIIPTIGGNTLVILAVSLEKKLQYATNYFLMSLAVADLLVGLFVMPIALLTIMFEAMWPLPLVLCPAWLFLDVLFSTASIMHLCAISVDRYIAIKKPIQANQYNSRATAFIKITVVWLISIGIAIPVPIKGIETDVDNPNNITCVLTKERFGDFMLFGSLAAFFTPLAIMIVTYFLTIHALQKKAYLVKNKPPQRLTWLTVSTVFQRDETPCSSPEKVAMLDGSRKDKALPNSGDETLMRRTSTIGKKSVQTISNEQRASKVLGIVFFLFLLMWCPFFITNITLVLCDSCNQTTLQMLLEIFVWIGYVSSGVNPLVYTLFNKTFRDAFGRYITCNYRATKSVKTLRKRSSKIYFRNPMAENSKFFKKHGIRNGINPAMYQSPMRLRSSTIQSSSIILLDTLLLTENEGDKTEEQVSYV

Row | Structure (SMILES) | Emax (5-HT2B receptor; [1]) [%] | EC50 (5-HT2B receptor; [2]) [nM] | Emax (5-HT2A receptor; [3]) [%] | EC50 (5-HT2A receptor; [4]) [nM] | Emax (5-HT2C receptor; [3]) [%] | EC50 (5-HT2C receptor; [5]) [nM] | EC50 (5-HT2B receptor) [nM] | EC50 (5-HT2A receptor) [nM] | EC50 (5-HT2C receptor) [nM]
1 | CN(C)CCc1c[nH]c2cc3c(cc12)OCC3 [Example P-1, 2-(3,5-dihydro-2H-furo[2,3-f]indol-7-yl)-N,N-dimethylethan-1-amine] | 2.92 | > 10000 | 63.9 | 139 | 82.3 | 134 |  |  | 
2 | CN(C)CCc1c[nH]c2cc3ccoc3cc12 [Example P-2, 2-(5H-Furo[2,3-f]indol-7-yl)-N,N-dimethylethan-1-amine] | -1.07 | > 10000 | 46.5 | 207 | 80.6 | 56.8 |  |  | 
3 | CN(C)CCc1c[nH]c2ccc3c(c12)OCC3 [Example P-3, 2-(3,6-dihydro-2H-furo[2,3-e]indol-8-yl)-N,N-dimethylethan-1-amine] | 13.8 | > 10000 | 81 | 9.73 | 76.4 | 16.2 |  |  | 
4 | CN(C)CCc1c[nH]c2cc3occc3cc12 [Example P-4, 2-(7H-furo[3,2-f]indol-5-yl)-N,N-dimethylethan-1-amine] | 4.68 |  | 70.4 |  | 78.9 |  | > 10000 | 9.39 | 6.11
5 | COc1ccc2[nH]cc(CCN(C)C)c2c1C [Example P-6, 2-(5-methoxy-4-methyl-1H-indol-3-yl)-N,N-dimethylethan-1-amine] | 11.3 | > 10000 | 64.1 | 124 | 73.6 | 303 |  |  | 
6 | COc1cc2c(CCN(C)C)c[nH]c2cc1C [Example P-7, 2-(5-methoxy-6-methyl-1H-indol-3-yl)-N,N-dimethylethan-1-amine] | 1.71 | > 10000 | 81.9 | 15.8 | 81.1 | 110 |  |  | 
7 | COc1c(C)ccc2[nH]cc(CCN(C)C)c12 [Example P-9, 2-(4-methoxy-5-methyl-1H-indol-3-yl)-N,N-dimethylethan-1-amine] | 17.3 | > 10000 | 65 | 24.6 | 80.7 | 6.23 |  |  | 
8 | Cc1ccc2[nH]cc(CCN(C)C)c2c1O [Example P-10, 3-(2-(dimethylamino)ethyl)-5-methyl-1H-indol-4-ol] | -0.21 | > 10000 | 63.1 | 55.1 | 71.2 | 72.8 |  |  | 
9 | Cc1cc(O)c2c(CCN(C)C)c[nH]c2c1 [Example P-12, 3-(2-(dimethylamino)ethyl)-6-methyl-1H-indol-4-ol] | 1.23 | > 10000 | 67.8 | 80.4 | 69.3 | 144 |  |  | 
10 | COc1ccc(C)c2[nH]cc(CCN(C)C)c12 [Example P-13, 2-(4-methoxy-7-methyl-1H-indol-3-yl)-N,N-dimethylethan-1-amine] | 0.67 | > 10000 | 36.1 | 107 | 69.5 | 56 |  |  | 
11 | COc1cc(F)cc2[nH]cc(CCN(C)C)c12 [Example P-14, 2-(6-fluoro-4-methoxy-1H-indol-3-yl)-N,N-dimethylethan-1-amine] | 0.17 | > 10000 | 87.2 | 12.9 | 75.7 | 2.6 |  |  | 
12 | COc1ccc2[nH]cc(CCN(C)C(C)C)c2c1C [Example P-38, N-(2-(5-methoxy-4-methyl-1H-indol-3-yl)ethyl)-N-methylpropan-2-amine] | 45.4 | 659 | 83.3 | 189 | 23.7 | > 10000 |  |  | 
13 | CCN(CCc1c[nH]c2ccc(OC)c(C)c12)C(C)C [Example P-40, N-ethyl-N-(2-(5-methoxy-4-methyl-1H-indol-3-yl)ethyl)propan-2-amine] | 33.8 | > 10000 | 78.4 | 894 | 0.71 | > 10000 |  |  | 
